Assay results reported in patent publication US20070249655A1, “4-Substituted-1,5-Dihydro-Pyrido[3,2-B]Indol-2-Ones” (priority 2004, published 2007).
pEC50: −log10 of the molar value. Read-outs that look alike come from different tables or passages of the source.

Experiments:
[1] = system: wild type laboratory HIV strain (HIV-1 strain LAI); experiment: Antiviral cellular assay (MT4 cells, MTT), wild type; type: cell-based; details: for EC50: Human immunodeficiency virus 1, WT, MT4 cells, read-out: pEC50 against wild type HIV-LAI strain (converted); for pEC50: Human immunodeficiency virus 1, MT4
Method: The compounds of the present invention were examined for anti-viral activity in a cellular assay. […] The cellular assay was performed according to the following procedure.
(§1) HIV- or mock-infected MT4 cells were incubated for five days in the presence of various concentrations of the inhibitor. At the end of the incubation period, the replicating virus in the control cultures has killed all HIV-infected cells in the absence of any inhibitor. Cell viability was determined by measuring the concentration of MTT, a yellow, water soluble tetrazolium dye that is converted to a purple, water insoluble formazan in the mitochondrial of living cells only. Upon solubilization of the resulting formazan crystals with isopropanol, the absorbance of the solution was monitored at 540 nm. The values correlate directly to the number of living cells remaining in the culture at the completion of the five day incubation. The inhibitory activity of the compound was monitored on the virus-infected cells and was expressed as EC50 and EC90. These values represent the amount of the compound required to protect 50% and 90%, respectively, of the cells from the cytopathogenic effect of the virus. The toxicity of the compound was measured on the mock-infected cells and was expressed as CC50, which represents the concentration of compound required to inhibit the growth of the cells by 50%. The selectivity index (SI) (ratio CC50/EC50) is an indication of the selectivity of the anti-HIV activity of the inhibitor. Wherever results are reported as e.g. pEC50 or pCC50 values, the result is expressed as the negative logarithm of the result expressed as EC50 or CC50 respectively.

HIV strain A (Y181C) = experiment: Antiviral cellular assay, mutant strain A; type: cell-based; details: for fold resistance, mutant A: EC50 mutant / EC50 wild type, rounded to nearest integer; for EC50: Human immunodeficiency virus 1, read-out: pEC50 towards mutant A (converted)
Method: as §1
(§2) Because of the increasing emergence of drug resistant HIV strains, the present compounds were also tested for their potency against clinically isolated HIV strains harbouring several mutations (Tables 1 and 7). These mutations are associated with resistance to reverse transcriptase inhibitors and result in viruses that show various degrees of phenotypic cross-resistance to the currently commercially available drugs such as for instance AZT, didanosine, nevirapine, lamivudine and zalcibatine.

HIV strain B (K103N) = experiment: Antiviral cellular assay, mutant strain B; type: cell-based; details: for fold resistance, mutant B: EC50 mutant / EC50 wild type, rounded to nearest integer; for EC50: Human immunodeficiency virus 1, read-out: pEC50 towards mutant B (converted)
Method: as §1, §2

[2] = system: HIV strain C (L100I; K103N); experiment: Antiviral cellular assay, mutant strain C; type: cell-based; details: for fold resistance, mutant C: EC50 mutant / EC50 wild type, rounded to nearest integer; for EC50: Human immunodeficiency virus 1, read-out: pEC50 towards mutant C (converted)
Method: as §1, §2

[3] = system: HIV strain D (L100I;K103N); experiment: Antiviral cellular assay, mutant strain D; type: cell-based; details: for fold resistance, mutant D: EC50 mutant / EC50 wild type, rounded to nearest integer; for EC50: Human immunodeficiency virus 1, read-out: pEC50 towards mutant D (converted)
Method: as §1, §2

HIV strain E (F227C) = experiment: Antiviral cellular assay, mutant strain E; type: cell-based; details: for fold resistance, mutant E: EC50 mutant / EC50 wild type, rounded to nearest integer; for EC50: Human immunodeficiency virus 1, read-out: pEC50 towards mutant E (converted)
Method: as §1, §2

HIV strain F (Y188L) = experiment: Antiviral cellular assay, mutant strain F; type: cell-based; details: for fold resistance, mutant F: EC50 mutant / EC50 wild type, rounded to nearest integer; for EC50: Human immunodeficiency virus 1, read-out: pEC50 towards mutant F (converted)
Method: as §1, §2

[4] = system: HIV strain G (V106A, F227L); experiment: Antiviral cellular assay, mutant strain G; type: cell-based; details: for fold resistance, mutant G: EC50 mutant / EC50 wild type, rounded to nearest integer; for EC50: Human immunodeficiency virus 1, read-out: pEC50 towards mutant G (converted)
Method: as §1, §2

[5] = system: HIV strain H (K103N, Y181C); experiment: Antiviral cellular assay, mutant strain H; type: cell-based; details: for fold resistance, mutant H: EC50 mutant / EC50 wild type, rounded to nearest integer; for EC50: Human immunodeficiency virus 1, read-out: pEC50 towards mutant H (converted)
Method: as §1, §2

[6] = system: HIV strain I (K101E, K103N); experiment: Antiviral cellular assay, mutant strain I; type: cell-based; details: for fold resistance, mutant I: EC50 mutant / EC50 wild type, rounded to nearest integer; for EC50: Human immunodeficiency virus 1, read-out: pEC50 towards mutant I (converted)
Method: as §1, §2

[7] = system: HIV strain J (I31L, L100I, K103N, E138G, Y181C, L214F); experiment: Antiviral cellular assay, mutant strain J; type: cell-based; details: for fold resistance, mutant J: EC50 mutant / EC50 wild type, rounded to nearest integer; for EC50: Human immunodeficiency virus 1, read-out: pEC50 towards mutant J (converted)
Method: as §1, §2

[8] = system: HIV strain K (multi-mutant incl. M41L, D67N, K103N, Y181C, L210W, T215Y); experiment: Antiviral cellular assay, mutant strain K; type: cell-based; details: for fold resistance, mutant K: EC50 mutant / EC50 wild type, rounded to nearest integer; for EC50: Human immunodeficiency virus 1, read-out: pEC50 towards mutant K (converted)
Method: as §1, §2

HIV-2 = experiment: Antiviral cellular assay, HIV-2; type: cell-based; details: Human immunodeficiency virus 2; read-out: pEC50 towards HIV-2 (converted)
Method: as §1, with “The toxicity of the compound was measured on the mock-infected cells and was expressed as CC50, which represents the concentration of compound required to inhibit the growth of the cells by 50%. The selectivity index (SI) (ratio CC50/EC50) is an indication of the selectivity of the anti-HIV activity of the inhibitor.” left out
(§3) Row WT: pEC50 against wild type HlV-LAI strain. The toxicity (Tox) is expressed as the pCC50 value as determined with mock transfected cells. ND means not determined.

[9] = system: SIV (simian immunodeficiency virus); experiment: Antiviral cellular assay, SIV; type: cell-based; details: read-out: pEC50 towards SIV (converted)
in vitro = type: cell-based; details: human
Method: as §1, with “The toxicity of the compound was measured on the mock-infected cells and was expressed as CC50, which represents the concentration of compound required to inhibit the growth of the cells by 50%. The selectivity index (SI) (ratio CC50/EC50) is an indication of the selectivity of the anti-HIV activity of the inhibitor.” left out
as §3

[10] = molecular target: T1, HIV reverse transcriptase (Human immunodeficiency virus type 1 group M subtype B, UniProt P04585); experiment: In vitro inhibition of HIV reverse transcriptase (kit TRK 1022); type: biochemical; details: enzyme assay, no conversion to active metabolite needed
T1 construct: 5 μl HIV RT enzyme solution at a final enzyme activity of 15 mU per 50 μl reaction; purchased Amersham Life Sciences TRK 1022
Method: In vitro Inhibition of HIV Reverse Transcriptase The assay was run using kit TRK 1022 (Amersham Life Sciences) according to the manufacturer's instructions with slight modifications. Compounds were diluted in steps of ¼ in 100% DMSO and subsequently transferred to Medium A (1/50 dilution; medium A: RPMI 1640+10% FetalClone II+Gentamycin 20 mg/L). 25 μl of compound (in 2% DMSO in Medium A) or 25 μl of 2% DMSO in medium A was added to wells. To each well was added 25.5 μl master mix (master mix: 5 μl primer/template beads, 10 μl assay buffer, 0.5 μl tracer (3H-TTP), 5 μl HIV RT enzyme solution at a final enzyme activity of 15 mU per 50 μl reaction, 5 μl medium A). The plates were sealed, marked as radioactive and incubated during 4 hours at 37° C. Subsequently, 100 μl stop solution was added to each well (except R1). The radioactivity was counted in a TopCount.

Mycobacterium b. = experiment: Specificity versus non-viral pathogens: Mycobacterium b.; type: cell-based
Plasmodium f. = experiment: Specificity versus non-viral pathogens: Plasmodium f.; type: cell-based
Trypanosoma b. = experiment: Specificity versus non-viral pathogens: Trypanosoma b.; type: cell-based
Trypanosoma c. = experiment: Specificity versus non-viral pathogens: Trypanosoma c.; type: cell-based
[11] = read-out: EC50 value, wild-type HIV-LAI strain

For CC(=O)CC1C(C#N)=C(N(C)C)N(c2ccc([N+](=O)[O-])cc2)c2c1n(C)c1ccccc21 (centres unmarked) [2-(dimethylamino)-4,5-dihydro-5-methyl-1-(4-nitrophenyl)-4-(2-oxopropyl)-1H-pyrido[3,2-b]indole-3-carbonitrile, reference compound], the EC50 [1] was 3160 nM.

For N#Cc1cc2[nH]c3ccccc3c2n(-c2ccc([N+](=O)[O-])cc2)c1=O [Compound 1, 1-(4-nitro-phenyl)-2-oxo-2,5-dihydro-1H-pyrido[3,2-b]indole-3-carbonitrile], the EC50 [1] was 316 nM, the “fold resistance, mutant A” value (HIV strain A (Y181C)) was “(8)” and the EC50 (HIV strain A (Y181C)) was 2510 nM. For the same compound, the “fold resistance, mutant B” value (HIV strain B (K103N)) was “(4)”, the EC50 (HIV strain B (K103N)) was 1260 nM and the “fold resistance, mutant C” value [2] was “(8)”. For the same compound, the EC50 [2] was 2510 nM, the “fold resistance, mutant D” value [3] was “(3)” and the EC50 [3] was 1000 nM. The “fold resistance, mutant E” value (HIV strain E (F227C)) was “(6)”, the EC50 (HIV strain E (F227C)) was 2000 nM and the “fold resistance, mutant F” value (HIV strain F (Y188L)) was “(4)”. The EC50 (HIV strain F (Y188L)) was 1260 nM, the “fold resistance, mutant G” value [4] was “(2)” and the EC50 [4] was 631 nM. The “fold resistance, mutant H” value [5] was “(5)”, the EC50 [5] was 1580 nM and the “fold resistance, mutant I” value [6] was “(3)”. The EC50 [6] was 794 nM, the “fold resistance, mutant J” value [7] was “(5)” and the EC50 [7] was 1580 nM. For the same compound, the “fold resistance, mutant K” value [8] was “(1)”, the EC50 [8] was 316 nM and the EC50 (HIV-2) was 6310 nM. The EC50 [9] was 7940 nM and the CC50 at 5 days (in vitro) was greater than 32400 nM.

In the case of Cn1c2ccccc2c2c1cc(C#N)c(=O)n2-c1ccc([N+](=O)[O-])cc1 [Compound 2, 5-methyl-1-(4-nitro-phenyl)-2-oxo-2,5-dihydro-1H-pyrido[3,2-b]indole-3-carbonitrile], the pEC50 ([1]; read-out: EC50 value for wild-type HIV) was greater than 7.00, the EC50 [1] was 25.1 nM and the “fold resistance, mutant A” value (HIV strain A (Y181C)) was “(4)”. For the same compound, the EC50 (HIV strain A (Y181C)) was 100 nM, the “fold resistance, mutant B” value (HIV strain B (K103N)) was “(1)” and the EC50 (HIV strain B (K103N)) was 31.6 nM. For the same compound, the “fold resistance, mutant C” value [2] was “(3)”, the EC50 [2] was 79.4 nM and the “fold resistance, mutant D” value [3] was “(2)”. For the same compound, the EC50 [3] was 50.1 nM, the “fold resistance, mutant E” value (HIV strain E (F227C)) was “(3)” and the EC50 (HIV strain E (F227C)) was 63.1 nM. For the same compound, the “fold resistance, mutant F” value (HIV strain F (Y188L)) was “(2)”, the EC50 (HIV strain F (Y188L)) was 39.8 nM and the “fold resistance, mutant G” value [4] was “(3)”. The EC50 [4] was 63.1 nM, the “fold resistance, mutant H” value [5] was “(5)” and the EC50 [5] was 126 nM. The “fold resistance, mutant I” value [6] was “(3)”, the EC50 [6] was 63.1 nM and the “fold resistance, mutant J” value [7] was “(5)”. The EC50 [7] was 126 nM, the “fold resistance, mutant K” value [8] was “(4)” and the EC50 [8] was 100 nM. For the same compound, the EC50 (HIV-2) was 251 nM, the EC50 [9] was 316 nM and the CC50 at 5 days (in vitro) was greater than 32400 nM. For the same compound, the “inhibition of HIV reverse transcriptase in vitro” value [10] was “inhibits HIV reverse transcriptase in vitro”, the pEC50 (Mycobacterium b.) was less than 4.49 and the pEC50 (Plasmodium f.) was less than 4.49. For the same compound, the pEC50 (Trypanosoma b.) was less than 4.49 and the pEC50 (Trypanosoma c.) was less than 4.49.

N#Cc1cc2c(c3ccccc3n2Cc2ccccc2)n(-c2ccc([N+](=O)[O-])cc2)c1=O [Compound 6] gave a pEC50 [1, 11] of 4.49 to 6.00.

With CCCCn1c2ccccc2c2c1cc(C#N)c(=O)n2-c1ccc([N+](=O)[O-])cc1 [Compound 8] the pEC50 [1, 11] was greater than 6.00.

With CCn1c2ccccc2c2c1cc(C#N)c(=O)n2-c1ccc([N+](=O)[O-])cc1 [Compound 9] the pEC50 [1, 11] was greater than 6.00.

Work on N#Cc1cc2c(c3ccccc3n2C2CCCC2)n(-c2ccc([N+](=O)[O-])cc2)c1=O [Compound 10] yielded a pEC50 [1, 11] of 4.49 to 6.00.

With N#Cc1cc2c(c3ccccc3n2CC(=O)O)n(-c2ccc([N+](=O)[O-])cc2)c1=O [Compound 19] the pEC50 [1, 11] was 4.49 to 6.00.

N#Cc1cc2[nH]c3ccccc3c2n(-c2ccc(F)cc2)c1=O [Compound 37] showed a pEC50 [1, 11] of less than 4.49.

Work on N#Cc1cc2[nH]c3ccccc3c2n(-c2ccc(Br)cc2)c1=O [Compound 38] yielded a pEC50 [1, 11] of 4.49 to 6.00.

With Cn1c2ccccc2c2c1cc(C#N)c(=O)n2-c1ccc(Br)cc1 [Compound 39] the pEC50 [1, 11] was 4.49 to 6.00.

Compound N#Cc1cc2[nH]c3ccccc3c2n(-c2ccc(F)c([N+](=O)[O-])c2)c1=O [Compound 41] has a pEC50 [1, 11] of 4.49 to 6.00.

N#Cc1cc2[nH]c3ccccc3c2n(-c2cccc([N+](=O)[O-])c2)c1=O [Compound 42] showed a pEC50 [1, 11] of 4.49 to 6.00.

In the case of Cn1c2ccccc2c2c1cc(C#N)c(=O)n2-c1cccc([N+](=O)[O-])c1 [Compound 43], the pEC50 [1, 11] was greater than 6.00.

For Cn1c2ccccc2c2c1cc(C#N)c(=O)n2-c1ccc(F)cc1 [Compound 44], the pEC50 [1, 11] was less than 4.49.
